# According to patent US20060189608A1, “Methods for treating ocular angiogenesis, retinal edema, retinal ischemia, and diabetic retinopathy using selective RTK inhibitors” (Alcon, Inc., priority 2005, published 2006):
# pIC50: −log10 of the molar value.
# Key:
# INSR = INSR (Homo sapiens, UniProt P06213); assay: Kinase inhibition profile, non-related TK; format: biochemical; settings: ATP concentration of 1 nM
# LYN = LYN (Homo sapiens, UniProt P07948); assay: Kinase inhibition profile, non-related TK; format: biochemical; settings: ATP concentration of 1 nM
# Chain of LYN (P07948 whole entry): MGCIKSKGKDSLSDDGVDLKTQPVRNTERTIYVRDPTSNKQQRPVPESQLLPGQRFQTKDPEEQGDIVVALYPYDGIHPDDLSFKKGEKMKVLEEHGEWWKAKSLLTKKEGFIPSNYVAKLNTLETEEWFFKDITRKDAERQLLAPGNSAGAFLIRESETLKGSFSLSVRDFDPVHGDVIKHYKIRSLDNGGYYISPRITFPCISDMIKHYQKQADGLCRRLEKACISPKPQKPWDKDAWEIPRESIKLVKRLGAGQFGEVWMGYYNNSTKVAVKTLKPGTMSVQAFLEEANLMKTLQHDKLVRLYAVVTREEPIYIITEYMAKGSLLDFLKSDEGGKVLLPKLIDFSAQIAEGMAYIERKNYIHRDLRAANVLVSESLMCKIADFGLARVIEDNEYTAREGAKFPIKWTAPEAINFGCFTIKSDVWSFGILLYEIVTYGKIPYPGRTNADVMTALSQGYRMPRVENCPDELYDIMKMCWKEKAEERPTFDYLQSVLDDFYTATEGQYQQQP
# rat OIR model = assay: Preretinal neovascularization, rat OIR model, oral gavage; format: in vivo, Sprague-Dawley rats; settings: for % Inhibition (vs vehicle-injected eye): preretinal NV
# Experimental: Immediately following euthanasia, retinas from all rat pups were harvested, fixed in 10% neutral buffered formalin for 24 hours, subjected to ADPase staining, and fixed onto slides as whole mounts. Digital images were acquired from each retinal flat mount that was adequately prepared. Computerized image analysis was used to obtain a NV clockhour score from each readable sample. Each clockhour out of 12 total per retina was assessed for the presence or absence of preretinal NV. Statistical comparisons using median scores for NV clockhours from each treatment group were utilized in nonparametric analyses. Each noninjected pup represented one NV score by taking the average value of both eyes and was used in comparisons against each dosage group. Because the pups were randomly assigned and no difference was observed between oxygen-exposed control pups from all litters, the NV scores were combined for all treatment groups. P≦0.05 was considered statistically significant.
# METHODS: Pregnant Sprague-Dawley rats were received at 14 days gestation and subsequently gave birth on Day 22±1 of gestation. Immediately following parturition, pups were pooled and randomized into separate litters (n=17 pups/litter), placed into separate shoebox cages inside oxygen delivery chamber, and subjected to an oxygen-exposure profile from Day 0 to Day 14 postpartum. Litters were then placed into room air from Day 14/0 through Day 14/6 (days 14-20 postpartum). Additionally on Day 14/0, each pup was randomly assigned as oxygen-exposed controls, vehicle treated, or drug-treated at 1.5, 5, 10 mg/kg, p.o., BID. At Day 14/6 (20 days postpartum), all animals in both studies were euthanized and retina whole mounts were prepared as described in Example 1 above.
# [1] = tested on: existing laser-induced choroidal neovascularization (CNV); assay: Regression of existing laser-induced CNV, intravitreal injection, mouse; format: in vivo; settings: for Mean CNV / Median CNV: intravitreal at day 7, day 14; for inhibition of CNV as compared to vehicle-injected eyes at day 14 post-laser: intravitreal at day 7; for reduction of median CNV area compared to CNV present at 7 days post-laser: intravitreal at day 7, read at day 14
# Experimental: (§1) Methods. CNV was generated by laser-induced rupture of Bruch's membrane. Briefly, 4 to 5 week old male C57BL/6J mice were anesthetized using intraperitoneal administration of ketamine hydrochloride (100 mg/kg) and xylazine (5 mg/kg) and the pupils of both eyes dilated with topical ocular instillation of 1% tropicamide and 2.5% Mydfin®. One drop of topical cellulose (Gonioscopic®) was used to lubricate the cornea. A hand-held cover slip was applied to the cornea and used as a contact lens to aid visualization of the fundus. Three to four retinal burns were placed in randomly assigned eye (right or left eye for each mouse) using the Alcon 532 nm EyeLite laser with a slit 5 lamp delivery system. The laser burns were used to generate a rupture in Bruch's membrane, which was indicated ophthalmoscopically by the formation of a bubble under the retina. Only mice with laser burns that produced three bubbles per eye were included in the study. Bums were typically placed at the 3, 6, 9 or 12 o'clock positions in the posterior pole of the retina, avoiding the branch retinal arteries and veins.
# (§2) Each mouse was randomly assigned into one of the following treatment groups: noninjected controls, sham-injected controls, vehicle-injected mice, or one of three RTKi-injected groups. Control mice received laser photocoagulation in both eyes, where one eye received a sham injection, i.e. a pars plana needle puncture. […] The intravitreal injection was performed immediately after laser photocoagulation. At 14 days post-laser, all mice were anesthetized and systemically perfused with fluorescein-labeled dextran. Eyes were then harvested and prepared as choroidal flat mounts with the RPE side oriented towards the observer. All choroidal flat mounts were examined using a fluorescent microscope. Digital images of the CNV were captured, where the CNV was identified as areas of hyperfluorescence within the pigmented background. Computerized image analysis was used to delineate and measure the two dimensional area of the hyperfluorescent CNV per lesion (um^2) for the outcome measurement. The median CNV area/burn per mouse per treatment group or the mean CNV area/burn per treatment group was used for statistical analysis depending on the normality of data distribution; P≦0.05 was considered significant.
# METHODS: CNV was generated by laser-induced rupture of Bruch's membrane as described above in Example 3. Each mouse was randomly assigned to one of the following treatment groups: noninjected controls, sham-injected controls, vehicle-injected mice, AL-39324 injected groups. Control mice received laser photocoagulation in both eyes, where one eye received a sham injection, i.e. a pars plana needle puncture. […] All mice received laser photocagulation at day 0. For mice randomized to an injection group, a single intravitreal injection was performed at 7 days post-laser. Also at 7 days post-laser, several mice with no-injection were euthanized and their eyes used for controls. At 14 days post-laser, all remaining mice were euthanized and systemically perfused with fluorescein-labeled dextran. Eyes were then harvested and prepared as choroidal flat mounts with the RPE side oriented towards the observer. Choroidal flat mounts were analyzed as described above in Example 3.
# [2] = tested on: laser-induced choroidal neovascularization (CNV); assay: Laser-induced CNV, oral gavage, prevention paradigm, mouse; format: in vivo; settings: for inhibition of CNV: prevention paradigm; for Mean CNV / Median CNV: prevention
# Experimental: as §1, §2
# METHODS: CNV was generated by laser-induced rupture of Bruch's membrane as described in Example 3 above. […] The mice received an oral gavage of 0, 1.5, 5, or 10 mg/kg twice per day and for 14 days post-laser. […] Oral gavage dosing was continued twice per day for 14 days post-laser. Several mice were Is euthanized at day 7 post-laser and used for controls. At 14 days post-laser, all mice were anesthetized and systemically perfused with fluorescein-labeled dextran. Eyes were then harvested and prepared as choroidal flat mounts as described in Example 3 above.
# [3] = tested on: diabetes-induced retinal vascular permeability; assay: Diabetes-induced retinal vascular permeability, oral gavage, STZ rat model
# Experimental: METHODS: Diabetes was induced in male Long-Evans rats with 65 mg/kg streptozotocin (STZ) after an overnight fast. […] After 2 weeks, jugular vein catheters were implanted 1 day prior to experimentation for the infusion of indicator dye. Retinal vascular permeability, RVP, was measured using Evan's blue albumin permeation (45 mg/kg) after a 2 hour circulation period.
# Chain of INSR (P06213 28-1382): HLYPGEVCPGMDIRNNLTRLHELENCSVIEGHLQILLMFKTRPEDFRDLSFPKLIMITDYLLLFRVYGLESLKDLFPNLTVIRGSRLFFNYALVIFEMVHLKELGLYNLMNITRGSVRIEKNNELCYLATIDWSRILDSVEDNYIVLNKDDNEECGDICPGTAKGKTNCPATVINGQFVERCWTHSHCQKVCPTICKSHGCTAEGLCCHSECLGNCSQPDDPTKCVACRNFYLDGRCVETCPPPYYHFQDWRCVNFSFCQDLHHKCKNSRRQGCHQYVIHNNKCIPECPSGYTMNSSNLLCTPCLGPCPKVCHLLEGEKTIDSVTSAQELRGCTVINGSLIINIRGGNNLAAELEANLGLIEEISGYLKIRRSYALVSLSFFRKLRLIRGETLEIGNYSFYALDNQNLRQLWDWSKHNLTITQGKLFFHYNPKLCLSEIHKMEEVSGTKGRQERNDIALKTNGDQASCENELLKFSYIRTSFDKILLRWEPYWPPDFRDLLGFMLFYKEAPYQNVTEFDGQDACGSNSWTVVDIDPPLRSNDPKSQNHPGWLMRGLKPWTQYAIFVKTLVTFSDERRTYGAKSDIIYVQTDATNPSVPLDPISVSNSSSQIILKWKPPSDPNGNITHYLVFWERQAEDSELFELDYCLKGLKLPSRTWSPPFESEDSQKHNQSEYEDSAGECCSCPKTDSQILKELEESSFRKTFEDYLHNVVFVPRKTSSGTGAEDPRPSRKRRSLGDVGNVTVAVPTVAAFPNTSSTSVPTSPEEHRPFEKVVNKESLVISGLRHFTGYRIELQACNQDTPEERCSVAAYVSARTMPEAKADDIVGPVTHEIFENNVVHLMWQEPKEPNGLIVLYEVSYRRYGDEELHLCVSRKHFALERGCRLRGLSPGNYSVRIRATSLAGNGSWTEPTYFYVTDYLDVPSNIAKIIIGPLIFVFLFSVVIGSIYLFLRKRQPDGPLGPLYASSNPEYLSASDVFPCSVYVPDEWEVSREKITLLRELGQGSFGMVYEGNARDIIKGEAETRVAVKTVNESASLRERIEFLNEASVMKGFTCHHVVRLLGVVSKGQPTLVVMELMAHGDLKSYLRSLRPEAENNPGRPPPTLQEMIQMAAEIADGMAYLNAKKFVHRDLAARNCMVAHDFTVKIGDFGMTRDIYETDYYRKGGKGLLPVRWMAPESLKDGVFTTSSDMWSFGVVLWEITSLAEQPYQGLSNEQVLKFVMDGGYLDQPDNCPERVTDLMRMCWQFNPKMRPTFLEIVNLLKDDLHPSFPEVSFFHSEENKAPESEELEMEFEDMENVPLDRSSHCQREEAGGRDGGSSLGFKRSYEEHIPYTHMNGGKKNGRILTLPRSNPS
smiles,measurement,setting,value
"Cc1ccc(F)c(NC(=O)Nc2ccc(-c3cccc4[nH]nc(N)c34)cc2)c1 [AL-39324, N-[4-[3-amino-1H-indazol-4-yl)phenyl]-N′-(2-fluoro-5-methylphenyl)urea]",pIC50,INSR,< 4.30
same,pIC50,LYN,< 4.70
same,Median NV,"rat OIR model; 3 mg/kg in PEG 400, p.o.",7.5
same,NV Range,"rat OIR model; 3 mg/kg in PEG 400, p.o.",3.8-9.8
same,% Inhibition (vs vehicle-injected eye),"rat OIR model; 3 mg/kg in PEG 400, p.o. (per day, BID)",−1.4%
same,decrease in NV,rat OIR model; 3 mg/kg/day p.o.,did not have a significant decrease in NV
same,Median NV,"rat OIR model; 10 mg/kg in PEG 400, p.o.",1.105
same,NV Range,"rat OIR model; 10 mg/kg in PEG 400, p.o.",0-8
same,% Inhibition (vs vehicle-injected eye),"rat OIR model; 10 mg/kg in PEG 400, p.o. (per day, BID)",86.4%
same,Median NV,"rat OIR model; 20 mg/kg in PEG 400, p.o.",0
same,NV Range,"rat OIR model; 20 mg/kg in PEG 400, p.o.",0
same,% Inhibition (vs vehicle-injected eye),"rat OIR model; 20 mg/kg in PEG 400, p.o. (per day, BID)",100%
same,inhibition of preretinal NV,rat OIR model; 20 mg/kg/day p.o.,complete inhibition of preretinal NV
same,Mean CNV,[1]; 1% (2 μl),31000 µm²
same,Median CNV,[1]; 1% (2 μl),28300 µm²
same,Mean CNV,[1]; 1% (5 μl),39200 µm²
same,Median CNV,[1]; 1% (5 μl),36400 µm²
same,inhibition of CNV as compared to vehicle-injected eyes at day 14 post-laser,[1]; 2 μl 1%,55.9%
same,reduction of median CNV area compared to CNV present at 7 days post-laser,[1]; 2 μl 1%,45.4%
same,Mean CNV,[1]; 3% (5 μl),35200 µm²
same,Median CNV,[1]; 3% (5 μl),30600 µm²
same,inhibition of CNV as compared to vehicle-injected eyes at day 14 post-laser,[1]; 3%,52.3%
same,inhibition of CNV as compared to vehicle-injected eyes at day 14 post-laser,[1]; 5 μl 1%,43.7%
same,reduction of median CNV area compared to CNV present at 7 days post-laser,[1]; 5 μl 1%,29.7%
same,reduction of median CNV area compared to CNV present at 7 days post-laser,[1]; 5 μl 3%,41.0%
same,inhibition of CNV,[2]; 3 mg/kg/day oral gavage,no significant inhibition
same,Mean CNV,[2]; 3 mg/kg/day oral,21670 μm^2
same,Median CNV,[2]; 3 mg/kg/day oral,22317 μm^2
same,inhibition of CNV,[2]; 10 mg/kg/day oral gavage,84.3%
same,Mean CNV,[2]; 10 mg/kg/day oral,4046 μm^2
same,Median CNV,[2]; 10 mg/kg/day oral,4137 μm^2
same,inhibition of CNV,[2]; 20 mg/kg/d oral gavage,complete inhibition of CNV
same,Mean CNV,[2]; 20 mg/kg/day oral,3266 μm^2
same,Median CNV,[2]; 20 mg/kg/day oral,0 μm^2
same,RVP,[3]; NDM treated at 5 mg/kg/d,unchanged
same,"Blood glucose levels and body weights, DM control vs DM treatment groups","[3]; oral, DM rats",not different
same,"tolerability, systemic or ERG side effects","[3]; oral, NDM and DM groups",well tolerated by both NDM and DM groups with no observed systemic or ERG side effects
